Measured values published in patent US7060718B2, “Arylsulfonanilide ureas” (Amgen Inc., priority 1998, dated 2006).

Assays:
HeLa cells = assay: Tumor cell growth arrest in culture, Alamar Blue assay (HeLa); assay type: cell-based; conditions: Homo sapiens, concentration at which total growth inhibition occurred, 72 hours of treatment, triplicate
Experimental: (§1) The ability of test compounds to arrest the growth of tumor cells in culture was evaluated using HeLa cells, derived from a human cervical adenocarcinoma, and obtained from the American Type Culture Collection (ATCC, Rockville, Md.). Cells were grown in culture in the usual way. Test compounds were dosed in triplicate at concentrations ranging from 5 μM to 50 μM, and the cellular growth rate was calculated by harvesting the cells after 72 hours of treatment and measuring their metabolic activity using an Alamar Blue assay (Biosource International, Camarillo, Calif.). The degree of metabolic activity in the culture is proportional to the number of living cells. See, Ahmed et al., J. Immunol. Methods 1994, 170, 211. The change in growth rate for cells treated with test compounds was normalized to the growth of untreated cells and a plot of normalized cellular growth vs. compound concentration was made. The concentration at which total growth inhibition (TGI) occurred was determined. Compounds were similarly evaluated for cell growth inhibition using MCF-7/ ADR cells.

MCF-7/ADR cells = assay: Cell growth inhibition (MCF-7/ADR), evaluated similarly; assay type: cell-based; conditions: Homo sapiens, NCI/ADR-RES, concentration at which total growth inhibition occurred
Experimental: as §1

| melting point [°C] | SMILES | IC (TGI) (HeLa cells) [µM] | IC (TGI) (MCF-7/ADR cells) [µM] |
| --- | --- | --- | --- |
| – | COCCNC(=O)Nc1cc(NS(=O)(=O)c2c(F)c(F)c(F)c(F)c2F)ccc1OC [Compound 21] | 5 to 40 | > 40 |
| – | COc1ccc(NS(=O)(=O)c2c(F)c(F)c(F)c(F)c2F)cc1NC(=O)n1ncnc1N [Compound 18] | < 5 | < 5 |
| – | COc1ccc(NS(=O)(=O)c2c(F)c(F)c(F)c(F)c2F)cc1NC(=O)NCCO [Compound 13] | 5 to 40 | > 40 |
| 226 | COc1ccc(NS(=O)(=O)c2c(F)c(F)c(F)c(F)c2F)cc1NC(N)=O [Compound 5] | < 5 | < 5 |
| – | COc1ccc(NS(=O)(=O)c2c(F)c(F)c(F)c(F)c2F)cc1NC(=O)Nc1nnn[nH]1 [Compound 19] | < 5 | 5 to 40 |
| – | COc1ccc(NS(=O)(=O)c2c(F)c(F)c(F)c(F)c2F)cc1NC(=O)N1CCOCC1 [Compound 9] | 5 to 40 | 5 to 40 |
| – | COc1ccc(NS(=O)(=O)c2c(F)c(F)c(F)c(F)c2F)cc1NC(=O)Nc1nncs1 [Compound 20] | 5 to 40 | 5 to 40 |
| 164 to 170 | CCOC(=O)CNC(=O)Nc1cc(NS(=O)(=O)c2c(F)c(F)c(F)c(F)c2F)ccc1OC [Compound 6] | > 40 | > 40 |
| – | COc1ccc(NS(=O)(=O)c2c(F)c(F)c(F)c(F)c2F)cc1NC(=O)NC(CO)CO [Compound 12] | > 40 | > 40 |
| 140 to 144 | COc1ccc(NS(=O)(=O)c2c(F)c(F)c(F)c(F)c2F)cc1NC(=O)n1nccc1N [Compound 7] | < 5 | < 5 |
| – | COc1ccc(NS(=O)(=O)c2c(F)c(F)c(F)c(F)c2F)cc1NC(=O)NCC(O)CO (centres unmarked) [Compound 10] | 5 to 40 | 5 to 40 |
| – | COc1ccc(NS(=O)(=O)c2c(F)c(F)c(F)c(F)c2F)cc1NC(=O)Nc1ccccc1 [Compound 16] | 5 to 40 | > 40 |
| – | COc1ccc(NS(=O)(=O)c2c(F)c(F)c(F)c(F)c2F)cc1NC(=O)NCCCO [Compound 14] | 5 to 40 | > 40 |
| – | COc1ccc(NS(=O)(=O)c2c(F)c(F)c(F)c(F)c2F)cc1NC(=O)Nc1nccs1 [Compound 17] | > 40 | > 40 |
| – | COc1ccc(NS(=O)(=O)c2c(F)c(F)c(F)c(F)c2F)cc1NC(=O)NCC(N)=O [Compound 11] | > 40 | > 40 |
| – | COc1ccc(NS(=O)(=O)c2c(F)c(F)c(F)c(F)c2F)cc1NC(=O)N(CCO)CCO [Compound 15] | > 40 | > 40 |
| 208 | COc1ccc(NS(=O)(=O)c2c(F)c(F)c(F)c(F)c2F)cc1NC(=O)NCc1ccco1 [Compound 8] | < 5 | < 5 |
